Like-named read-outs stand apart in the source and are kept apart here.
Tests used:
[1] = molecular target: T1, human orexin-2 receptor (OX2R) (Homo sapiens, UniProt O43614); assay: Human OX2R IP1 assay; assay type: cell-based; conditions: T-Rex CHO cells stably overexpressing human OX2R, IP1 accumulation, 1 hr at 37 degrees C; mean EC50; ∧ = racemic mixture
T1 construct: expressed in transfected cells
T1 sequence (O43614 1-444): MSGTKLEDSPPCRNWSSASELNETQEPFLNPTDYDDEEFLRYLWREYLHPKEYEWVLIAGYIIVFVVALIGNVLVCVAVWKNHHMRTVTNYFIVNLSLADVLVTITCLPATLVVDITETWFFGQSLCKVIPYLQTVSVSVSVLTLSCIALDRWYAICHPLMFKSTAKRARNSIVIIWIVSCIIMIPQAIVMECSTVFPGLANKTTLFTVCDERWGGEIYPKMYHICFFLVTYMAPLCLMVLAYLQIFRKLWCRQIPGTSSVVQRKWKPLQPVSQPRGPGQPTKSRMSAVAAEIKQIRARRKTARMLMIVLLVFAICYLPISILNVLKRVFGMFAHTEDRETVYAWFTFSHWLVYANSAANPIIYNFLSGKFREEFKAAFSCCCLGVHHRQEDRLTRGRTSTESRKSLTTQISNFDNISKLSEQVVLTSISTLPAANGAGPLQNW
Procedure, shortened: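 Doxycycline-induced T-Rex CHO cells stably expressing human OX2R treated with compound 1 hr at 37 °C in LiCl-containing buffer, pH 7.4. IP1 accumulation quantified by HTRF competitive immunoassay; EC50 reported as mean ± S.E.M.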

[2] = Hepatocytes stability assay (human hepatocytes); assay type: in vitro ADME; conditions: both sexes, cryopreserved hepatocytes, 1 μM test compound, 1×10^6 cell/mL, 37 degrees C, read-out: CLint (μL/min/million cells)
Procedure, shortened: (§1)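 Cryopreserved pooled (50 donors, mixed gender) human hepatocytes at 1×10^6 cells/mL in Krebs-Henseleit buffer with 1 μM compound (0.1% DMSO), 37 degrees C, sampled 0–240 min. Parent depletion by LC-MS/MS; first-order fit gave T1/2 and CLint, scaled to hepatic clearance via well-stirred model (fu assumed 1); extraction ratio = CL,hep/liver blood flow.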

human hepatocytes = assay: Hepatocytes stability assay (human hepatocytes); assay type: in vitro ADME; conditions: scaled hepatic clearance divided by liver blood flow, fu assumed unity
Procedure, shortened: as §1

Sprague-Dawley rats = assay: Assessment of wake promotion in Sprague-Dawley rats (EEG/EMG); assay type: in vivo; conditions: Rattus norvegicus, 3 mpk, male Sprague-Dawley rats, dosed at ZT5, 6-hour post-dose period, read-out: Mean cortical activation time (% vehicle treatment)
Description: Wake promotion was assessed using electroencephalography (EEG) and electromyography (EMG) in adult male Sprague-Dawley rats (350-600 g). All rats (Charles River Laboratories, Raleigh, NC, USA) were intraperitoneally implanted with telemetry devices (F50-EEE, Data Sciences International Inc., M/N, USA) under isoflurane anesthesia. For EEG, stainless steel screws were implanted over frontal cortex and parietal cortex, and reference screws were placed over cerebellum. Additionally, an electrode was placed in neck muscle for EMG. Rats were given carprofen post-surgery and underwent a 7 to 10-day recovery period. Rats habituated to the experimental room for 7 days and were maintained on a 12-hour light-dark cycle.
EEG and EMG data were recorded using the DSI telemetry system and Ponemah software (Data Sciences International Inc., MN, USA). Sleep-wake stages were scored both manually and with Somnivore, a supervised machine learning software platform, in 10 second epocs. Records were visually inspected as needed post-processing.
All test compounds were dissolved in 5% DMSO and suspended in 95% saline with 0.5% methylcellulose and 0.5% tween. […] Unless otherwise indicated, all compounds were dosed orally. Recordings for each rat were initiated immediately after dosing and lasted for 6 hours post-dose.
Two key endpoints include wakefulness time and cortical activation time. Wakefulness time is derived from the sleep-wake stage analysis. Cortical activation time is based on the duration in which frontal gamma oscillatory activity (30-100 Hz), a key feature of wakefulness, was elevated relative to a pre-treatment baseline. Mean cortical activation time was computed relative to vehicle treatment for the 6-hour post-dose period.

| Compound | EC50 [1] [µM] | hepatocyte CLint at 1 μM [2] [µL/min/1e6 cells] | Extraction Ratio (ER) (human hepatocytes) | response vs control in vivo at 3 mg/kg (Sprague-Dawley rats; PO) [%] | response vs control in vivo at 3 mg/kg (Sprague-Dawley rats; SC) [%] |
| --- | --- | --- | --- | --- | --- |
| CS(=O)(=O)N[C@@H]1CCCN2C(=O)COc3cccc(F)c3[C@H]3CC[C@H](CC3)OC[C@H]12 (racemic) [Compound 49] | < 0.1 | 12 | 0.64 | 340 |  |
| COC(=O)N1CCC[C@H](NS(C)(=O)=O)[C@@H]1CO[C@H]1CC[C@@H](c2ccccc2)CC1 [methyl (2R,3S)-3-((methylsulfonyl)amino)-2-(((cis-4-phenylcyclohexyl)oxy)methyl)-piperidine-1-carboxylate, reference compound] | < 0.1 | 51 | 0.88 |  | 119 |

From patent US12054495B2, “Substituted macrocyclic compounds and related methods of treatment” (Alkermes, Inc., priority 2019, dated 2024)
